# Reference: patent EP0563062B1, “HEXAPEPTIDES DERIVING FROM AGLUCOTEICOPLANIN AND A PROCESS FOR PREPARING THEM” (GRUPPO LEPETIT S.p.A., priority 1990, dated 1992)
# How the values were obtained:
# Test in all cases: MIC, microdilution method in broth, in comparison with teicoplanin
# Assay type in all cases: cell-based
# [1] = system: S. epidermidis and S. haemolyticus, two species of Coagulase-Negative Staphylococci (CNS); conditions: relative to teicoplanin; Iso-Sensitest broth, inoculum about 10^5 cfu/ml, 18-24 hours at 37°C
# Description: (§1) The antimicrobial activity, expressed as minimal inhibitory concentration (MIC), of the hexapeptide of formula (I), R = hydrogen, against selected strains of Gram-positive bacteria was determined in comparison with teicoplanin. The microdilution method in Difco Todd-Hewitt broth (Streptococci) or Oxoid Iso-Sensitest broth (Staphylococci) was used.
# [2] = system: Staphylococci and Streptococci; conditions: relative to teicoplanin; inoculum about 10^5 cfu/ml, 18-24 hours at 37°C
# Description: as §1
# [3] = system: two strains of S. aureus and S. epidermidis showing low sensitivity to teicoplanin; conditions: Iso-Sensitest broth, 18-24 hours at 37°C
# Description: as §1
substance,measurement,setting,value
aglucoteicoplanin hexapeptide,"antimicrobial activity, expressed as minimal inhibitory concentration (MIC)",[1],same degree of activity
same,"antimicrobial activity, expressed as minimal inhibitory concentration (MIC)",[2],generally less active than teicoplanin
same,"antimicrobial activity (MIC), fold relative to teicoplanin",[3],four to sixteen times more active
